Patent US10722514B2 (FLX Bio, Inc., priority 2017, dated 2020)
Where a name gives a salt, the structure may show the parent alone.

These compounds were tested against T1, recombinant full-length USP7 (Homo sapiens, UniProt Q93009) (assay: USP7-mediated ubiquitin-rhodamine cleavage assay). Conditions: recombinant full-length USP7 62 pM; ubiquitin-rhodamine 100 nM; 30-minute incubation with compound, 1 hour reaction at room temperature; read-out: Potency: USP7 IC50.
T1 construct: A 25 μl reaction volume containing recombinant full-length USP7 (62 pM)
T1 sequence (Q93009 whole entry): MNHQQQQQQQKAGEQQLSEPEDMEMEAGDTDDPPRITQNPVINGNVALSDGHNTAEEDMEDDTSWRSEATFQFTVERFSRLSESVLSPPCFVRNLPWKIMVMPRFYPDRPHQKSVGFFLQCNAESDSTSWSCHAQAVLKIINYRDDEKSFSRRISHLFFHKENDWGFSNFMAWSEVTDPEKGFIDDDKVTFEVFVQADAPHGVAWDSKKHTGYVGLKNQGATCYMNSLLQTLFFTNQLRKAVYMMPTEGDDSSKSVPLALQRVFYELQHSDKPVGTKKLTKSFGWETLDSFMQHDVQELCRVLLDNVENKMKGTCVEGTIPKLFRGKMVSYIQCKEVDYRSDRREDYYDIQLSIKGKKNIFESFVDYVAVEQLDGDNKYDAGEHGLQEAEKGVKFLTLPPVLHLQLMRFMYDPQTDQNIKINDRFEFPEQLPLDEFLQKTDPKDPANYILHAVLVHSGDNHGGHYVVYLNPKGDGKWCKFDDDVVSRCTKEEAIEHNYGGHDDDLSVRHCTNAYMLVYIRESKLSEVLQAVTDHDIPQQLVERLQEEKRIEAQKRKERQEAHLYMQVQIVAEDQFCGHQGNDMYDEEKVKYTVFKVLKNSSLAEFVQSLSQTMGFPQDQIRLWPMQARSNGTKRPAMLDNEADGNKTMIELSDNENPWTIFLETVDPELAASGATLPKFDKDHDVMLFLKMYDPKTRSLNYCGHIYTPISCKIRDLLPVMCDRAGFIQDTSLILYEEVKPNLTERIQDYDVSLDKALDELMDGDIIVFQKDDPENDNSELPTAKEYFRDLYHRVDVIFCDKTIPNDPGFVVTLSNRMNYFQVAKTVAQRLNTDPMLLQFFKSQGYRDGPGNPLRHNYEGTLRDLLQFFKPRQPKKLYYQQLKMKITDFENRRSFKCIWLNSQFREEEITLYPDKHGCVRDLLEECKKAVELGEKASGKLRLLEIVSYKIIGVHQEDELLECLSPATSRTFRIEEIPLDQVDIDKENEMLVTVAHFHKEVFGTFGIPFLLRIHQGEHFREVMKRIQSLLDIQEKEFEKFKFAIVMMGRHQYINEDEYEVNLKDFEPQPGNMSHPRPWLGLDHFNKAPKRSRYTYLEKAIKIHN
Type: biochemical
Method in brief: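 Rhodamine fluorescence read-out after acetic acid stop; IC50 by 4-parameter nonlinear regression. Enzyme at 62 pM, substrate ubiquitin-rhodamine 100 nM final, 1 h at room temperature in the dark, after 30 min compound preincubation. Buffer: HEPES pH 7.3, NaCl, TCEP, BSA; 1% DMSO.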
In the case of `Cc1cc(Cl)cc(-c2ccnc3cc(CN4C(=O)CCN(C)C4=O)sc23)c1O[C@@H]1CNC[C@@H]1F` [Example 150, 3-((7-(5-Chloro-2-(((3R,4S)-4-fluoropyrrolidin-3-yl)oxy)-3-methylphenyl)thieno[3,2-b]pyridin-2-yl)methyl)-1-methyldihydropyrimidine-2,4(1H,3H)-dione], the IC50 is reported as < 1000 nM. `COc1ccc(C(=O)O)cc1-c1ccnc2cc(Cn3c(=O)ccn(CC(F)(F)F)c3=O)sc12` [Example 290, 3-[2-[[2,6-dioxo-3-(2,2,2-trifluoroethyl)pyrimidin-1-yl]methyl]thieno[3,2-b]pyridin-7-yl]-4-methoxy-benzoic acid] was tested, and the IC50 was 1000 to 10000 nM. With `Cc1cc(Cl)cc(-c2ccnc3cc(CN4C(=O)C5C(C4=O)C5(C)C)sc23)c1O[C@@H]1CNC[C@@H]1F` (stereo partly drawn) [Example 312, 3-[[7-[5-chloro-2-[(3R,4S)-4-fluoropyrrolidin-3-yl]oxy-3-methyl-phenyl]thieno[3,2-b]pyridin-2-yl]methyl]-6,6-dimethyl-3-azabicyclo[3.1.0]hexane-2,4-dione] the IC50 was < 1000 nM. `CCC(O)c1cc2nccc(-c3cc(Cl)cc(C)c3OC3CCN(C)CC3)c2s1` (stereo not shown) [Example 188, 1-(7-(5-Chloro-3-methyl-2-((1-methylpiperidin-4-yl)oxy)phenyl)thieno[3,2-b]pyridin-2-yl)propan-1-ol] showed an IC50 of 1000 to 10000 nM. In the case of `Cc1cc(Cl)cc(-c2ccnc3cc(CN4C(=O)CCN(C)C4=O)sc23)c1OC1CCNCC1` [Example 203, 3-((7-(5-Chloro-3-methyl-2-(piperidin-4-yloxy)phenyl)thieno[3,2-b]pyridin-2-yl)methyl)-1-methyldihydropyrimidine-2,4(1H,3H)-dione], the IC50 is reported as < 1000 nM. With `Cc1cc(Cl)cc(-c2ccnc3ccsc23)c1OC1CCCCNC1` (stereo not shown) [Example 264, 7-(2-(Azepan-3-yloxy)-5-chloro-3-methylphenyl)thieno[3,2-b]pyridine] the IC50 was 10000 to 30000 nM. With `CCN1C[C@H]2C[C@@H]1[C@H](Oc1c(C)cc(Cl)cc1-c1ccnc3cc(CN4C(=O)C5CC5C4=O)sc13)C2` (stereo partly drawn) [Example 320, 3-[[7-[5-chloro-2-[[(1S,4R,5R)-3-ethyl-3-azabicyclo[2.2.1]heptan-5-yl]oxy]-3-methyl-phenyl]thieno[3,2-b]pyridin-2-yl]methyl]-3-azabicyclo[3.1.0]hexane-2,4-dione] the IC50 was < 1000 nM. `Cc1cc(Cl)cc(-c2ccnc3cc(CO)sc23)c1OC1CC2CNC1C2` (stereo not shown) [Example 165, (7-(2-((2-Azabicyclo[2.2.1]heptan-6-yl)oxy)-5-chloro-3-methylphenyl)thieno[3,2-b]pyridin-2-yl)methanol] gave an IC50 of 1000 to 10000 nM. `CCc1cc(Cl)cc(-c2ccnc3cc(CO)sc23)c1OCC1CNC1` [Example 22, (7-(2-(Azetidin-3-ylmethoxy)-5-chloro-3-ethylphenyl)thieno[3,2-b]pyridin-2-yl)methanol] showed an IC50 of 1000 to 10000 nM. With `Cc1cc(Cl)cc(-c2ccnc3cc(CO)sc23)c1O[C@@H]1CN[C@@H](C(C)(C)O)C1` [Example 71, 2-((2R,4S)-4-(4-Chloro-2-(2-(hydroxymethyl)thieno[3,2-b]pyridin-7-yl)-6-methylphenoxy)pyrrolidin-2-yl)propan-2-ol] the IC50 was 10000 to 30000 nM. With `Cc1cc(Cl)cc(-c2ncnc3cc(CN4C(=O)C5CC5C4=O)sc23)c1O[C@H]1CCCNC1` (stereo partly drawn) [Example 245, 3-((4-(5-Chloro-3-methyl-2-(((S)-piperidin-3-yl)oxy)phenyl)thieno[3,2-d]pyrimidin-6-yl)methyl)-3-azabicyclo[3.1.0]hexane-2,4-dione] the IC50 was < 1000 nM. With `Cc1cc(Cl)cc(-c2ccnc3cc(Cn4c(=O)cc[nH]c4=O)sc23)c1O[C@@H]1CNC[C@@H]1F` [Example 153, 3-((7-(5-Chloro-2-(((3R,4S)-4-fluoropyrrolidin-3-yl)oxy)-3-methylphenyl)thieno[3,2-b]pyridin-2-yl)methyl)pyrimidine-2,4(1H,3H)-dione] the IC50 was < 1000 nM. `Cc1cc(Cl)cc(-c2ccnc3cc(CN4C(=O)C5CC5C4=O)sc23)c1OC1CCNCC1` (stereo not shown) [Example 233, 3-((7-(5-Chloro-3-methyl-2-(piperidin-4-yloxy)phenyl)thieno[3,2-b]pyridin-2-yl)methyl)-3-azabicyclo[3.1.0]hexane-2,4-dione] was tested, and the IC50 was < 1000 nM. Work on `CCC(O)c1cc2nccc(-c3cc(Cl)cc(C)c3OC3CCNCC3)c2s1` (stereo not shown) [Example 261, 1-(7-(5-Chloro-3-methyl-2-(piperidin-4-yIoxy)phenyl)thieno[3,2-b]pyridin-2-yl)propan-1-ol] yielded an IC50 of 1000 to 10000 nM. For `CC[C@@H](c1cc2nccc(-c3cc(Cl)cc(C)c3O[C@@H]3CNC[C@@H]3F)c2s1)N1C(=O)CCC1=O` [Example 137, 1-((S)-1-(7-(5-Chloro-2-(((3R,4S)-4-fluoropyrrolidin-3-yl)oxy)-3-methylphenyl)thieno[3,2-b]pyridin-2-yl)propyl)pyrrolidine-2,5-dione], the IC50 was < 1000 nM. With `Cc1cc(Cl)cc(-c2ncnc3cc(CN4C(=O)CC(C)(C)C4=O)sc23)c1O[C@@H]1CNC[C@@H]1F` [Example 380, 1-[[4-[5-chloro-2-[(3R,4S)-4-fluoropyrrolidin-3-yl]oxy-3-methyl-phenyl]thieno[3,2-d]pyrimidin-6-yl]methyl]-3,3-dimethyl-pyrrolidine-2,5-dione; 2,2,2-trifluoroacetic acid] the IC50 was < 1000 nM. `Cc1cc(Cl)cc(-c2ncnc3cc(CN4C(=O)C5C(C4=O)C5(C)C)sc23)c1OC1CNCC1(C)F` (stereo not shown) [Example 386, 3-[[4-[5-chloro-2-(4-fluoro-4-methyl-pyrrolidin-3-yl)oxy-3-methyl-phenyl]thieno[3,2-d]pyrimidin-6-yl]methyl]-6,6-dimethyl-3-azabicyclo[3.1.0]hexane-2,4-dione dihydrochloride] was tested, and the IC50 was < 1000 nM.

Same assay, conditions: recombinant full-length USP7 62 pM; ubiquitin-rhodamine 100 nM; 30-minute incubation, 1 hour reaction at room temperature; read-out: Potency (USP7 IC50)
`Cc1cc(Cl)cc(-c2ccnc3cc(Cn4c(=O)ccn(CC(F)(F)F)c4=O)sc23)c1OC1CC(N2CCC(O)C2)C1` (stereo not shown) [Example 672, 3-[[7-[5-chloro-2-[3-(3-hydroxypyrrolidin-1-yl)cyclobutoxy]-3-methyl-phenyl]thieno[3,2-b]pyridin-2-yl]methyl]-1-(2,2,2-trifluoroethyl)pyrimidine-2,4-dione; 2,2,2-trifluoroacetic acid] was tested, and the IC50 was < 1000 nM.

Same assay, conditions: recombinant full-length USP7 62 pM; ubiquitin-rhodamine 100 nM; 30-minute pre-incubation, 1 hour reaction at room temperature; read-out: Potency (USP7 IC50)
With `Cc1cc(Cl)cc(-c2ccnc3cc(Cn4c(=O)ccn(CC(F)(F)F)c4=O)sc23)c1OC1CN2CCC1CC2` (stereo not shown) [Example 594, 3-[[7-(5-chloro-3-methyl-2-quinuclidin-3-yloxy-phenyl)thieno[3,2-b]pyridin-2-yl]methyl]-1-(2,2,2-trifluoroethyl)pyrimidine-2,4-dione; 2,2,2-trifluoroacetic acid] the IC50 was < 1000 nM. In the case of `Cc1cc([N+](=O)[O-])cc(-c2ccnc3cc(Cn4c(=O)ccn(CC(F)(F)F)c4=O)sc23)c1Oc1cn[nH]c1` [Example 614], the IC50 is reported as < 1000 nM. For `Cc1cc(Cl)cc(-c2ccnc3cc(Cn4c(=O)ccn(CC(F)(F)F)c4=O)sc23)c1O[C@H]1CC[C@H](C)NC1` [Example 598, 3-[[7-[5-chloro-3-methyl-2-[[(3S,6S)-6-methyl-3-piperidyl]oxy]phenyl]thieno[3,2-b]pyridin-2-yl]methyl]-1-(2,2,2-trifluoroethyl)pyrimidine-2,4-dione; 2,2,2-trifluoroacetic acid], the IC50 was < 1000 nM. `Cc1cc(Cl)cc(-c2ccnc3cc(Cn4c(=O)ccn(C)c4=O)sc23)c1O[C@@H]1CCN(C)C[C@@H]1C` [Example 457, 3-[[7-[5-chloro-2-[[(3S,4R)-1,3-dimethyl-4-piperidyl]oxy]-3-methyl-phenyl]thieno[3,2-b]pyridin-2-yl]methyl]-1-methyl-pyrimidine-2,4-dione] was tested, and the IC50 was < 1000 nM. In the case of `Cc1cc(Cl)cc(-c2ccnc3cc(Cn4c(=O)ccn(CC(F)(F)F)c4=O)sc23)c1OC1CC(N2CCC(F)(F)CC2)C1` (stereo not shown) [Example 668, 3-[[7-[5-chloro-2-[3-(4,4-difluoro-1-piperidyl)cyclobutoxy]-3-methyl-phenyl]thieno[3,2-b]pyridin-2-yl]methyl]-1-(2,2,2-trifluoroethyl)pyrimidine-2,4-dione; 2,2,2-trifluoroacetic acid], the IC50 is reported as < 1000 nM. With `Cc1cc(Cl)cc(-c2ccnc3cc(Cn4c(=O)c(F)cn(CC(F)(F)F)c4=O)sc23)c1O[C@@H]1CCNC[C@@H]1C` [Example 551, 3-[[7-[5-chloro-3-methyl-2-[[(3S,4R)-3-methyl-4-piperidyl]oxy]phenyl]thieno[3,2-b]pyridin-2-yl]methyl]-5-fluoro-1-(2,2,2-trifluoroethyl)pyrimidine-2,4-dione] the IC50 was < 1000 nM. `Cc1cc(Cl)cc(-c2ccnc3cc(Cn4c(=O)ccn(C)c4=O)sc23)c1O[C@@H]1CC[C@@H](N)C1` [Example 426, 3-[[7-[2-[(1R,3R)-3-aminocyclopentoxy]-5-chloro-3-methyl-phenyl]thieno[3,2-b]pyridin-2-yl]methyl]-1-methyl-pyrimidine-2,4-dione; 2,2,2-trifluoroacetic acid] was tested, and the IC50 was < 1000 nM. In the case of `Cc1cc(Cl)cc(-c2ccnc3cc(Cn4c(=O)ccn(C)c4=O)sc23)c1OC1CC(N2CCOCC2)C1` (stereo not shown) [Example 516], the IC50 is reported as < 1000 nM. For `Cc1cc(Cl)cc(-c2ccnc3cc(CN4C(=O)CCC4=O)sc23)c1OC1CC(N)C1` (stereo not shown) [Example 438, 1-[[7-[2-(3-aminocyclobutoxy)-5-chloro-3-methyl-phenyl]thieno[3,2-b]pyridin-2-yl]methyl]pyrrolidine-2,5-dione; 2,2,2-trifluoroacetic acid], the IC50 was < 1000 nM. With `Cc1cc(Cl)cc(-c2ccnc3cc(Cn4c(=O)ccn(CC(F)(F)F)c4=O)sc23)c1O[C@@H]1CN(C2COC2)C[C@@H]1C` [Example 606, 3-[[7-[5-chloro-3-methyl-2-[(3S,4S)-4-methyl-1-(oxetan-3-yl)pyrrolidin-3-yl]oxy-phenyl]thieno[3,2-b]pyridin-2-yl]methyl]-1-(2,2,2-trifluoroethyl)pyrimidine-2,4-dione] the IC50 was < 1000 nM.
